Tests used:
[1] = system: splenic immune cells (T cells, myeloid cells, B cells, NK cells); assay: mOX40L expression in splenic immune cells after IV LNP-circular RNA (flow cytometry); type: in vivo, C57BL/6 mice; conditions: 1 mg/kg intravenously, 24 hours, IL:P 5.7, 50:10:38.5:1.5
Description: The ionizable lipid:helper lipid:cholesterol:PEG-lipid molar ratio of these LNPs was 50:10:38.5:1.5. Dialysis of the LNPs were performed using PBS. C57BL/6 female mice (6-8 weeks, n=4) were dosed at either LNP comprising Lipid 1 of Table […] or the Lipid 15 of Table 10f at 1 mg/kg intravenously.

splenic T cells = assay: mOX40L expression in splenic T cells after IV LNP-circular RNA; type: in vivo, C57BL/6 mice; conditions: 1 mg/kg intravenously, 24 hours
Description: The ionizable lipid:helper lipid:cholesterol:PEG-lipid molar ratio of these LNPs was 50:10:38.5:1.5. C57BL/6 female mice (6-8 weeks, n=4) were dosed at 1 mg/kg intravenously. At 24 hours, the spleen from the mice were collected for flow cytometry analysis, tested for weight loss and measured for serum alanine aminotransferase (ALT) after blood collection. mOX40L expression was measured in splenic T cells.

## CCCCCCCCCCCCC(O)CN(CCCO)CCCCCCCC(=O)OC(CCCCCCCC)CCCCCCCC (centres unmarked) [Lipid 1 of Table 10e]
[1]
  mOX40L transfection in splenic immune cells: comparable or higher levels of mOX40L transfection
Splenic T cells
  mOX40L expression in splenic T cells: resulted in expression of mOX40L in splenic T cells
